Source: patent US20180021277A1, “ANTI-VIRULENCE COMPOSITIONS AND METHODS” (priority 2012, published 2018)
Values after ≈ are worked out from the molar mass of the structure shown.

What was measured:
[1] = system: MRSA USA300; experiment: microbe, parasite or virus in culture; assay type: cell-based, Staphylococcus aureus; conditions: for MIC: Staphylococcus aureus, read-out: minimum inhibitory concentration (MIC), With F19 (1 μg/mL)
[2] = system: Streptococcus pyogenes; assay type: cell-based
[3] = system: Bacillus anthracis Ames strain; assay type: cell-based
[4] = system: MRSA USA300; assay type: in vivo, mice; conditions: for improvement of wound healing compared to untreated control: 20 mg/kg on the wound once a day for seven days, wound area day 8; for bacterial burden of the wound vs untreated control: 20 mg/kg once a day for seven days; for bacterial burden of the wound vs untreated control / tissue burden of the wound, average log CFUs ± standard deviation: day 8; for tissue burden of the wound, average log CFUs ± standard deviation: topical twice a day for seven days, cephalothin 30 mg/kg, F19 20 mg/kg, vancomycin 30 mg/kg
[5] = Survival of insect larvae given compound in the absence of bacteria; assay type: in vivo, Galleria Mellonella; conditions: after 84 h
[6] = target: AgrA-P3 complex (Staphylococcus aureus, UniProt P0A0I7); experiment: Electrophoretic mobility shift assay, AgrA with P3 promoter DNA; conditions: 1 nM P3 DNA, 2 μM AgrA
[7] = system: MRSE Q-15; assay type: cell-based, Staphylococcus epidermidis
[8] = system: MRSA USA300; experiment: Murine MRSA bacteremia/sepsis model

Chain of AgrA-P3 complex (P0A0I7 whole entry, one chain of several): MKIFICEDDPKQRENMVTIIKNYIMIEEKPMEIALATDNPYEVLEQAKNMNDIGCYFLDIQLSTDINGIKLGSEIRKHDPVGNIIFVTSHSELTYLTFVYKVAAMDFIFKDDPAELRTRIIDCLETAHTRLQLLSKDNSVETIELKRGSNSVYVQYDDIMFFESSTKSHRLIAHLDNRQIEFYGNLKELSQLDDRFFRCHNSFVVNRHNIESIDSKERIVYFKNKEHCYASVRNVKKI

CCOc1ccc2ccccc2c1C(=O)N[C@@H]1C(=O)N2[C@@H]1SC(C)(C)[C@@H]2C(=O)O [Nafcillin]
minimum inhibitory concentration (MIC), antibiotic Alone ([1]; MRSA USA300): 60 µg/mL (≈ 145 µM)
MIC [1]: 1 µg/mL (≈ 2.41 µM)
minimum inhibitory concentration (MIC), antibiotic Alone ([2]; alone): 25
minimum inhibitory concentration (MIC), With F19 (1 μg/mL) ([2]; with F19 1 μg/mL): 10

CC(C)(O/N=C(\C(=O)N[C@@H]1C(=O)N2C(C(=O)[O-])=C(C[n+]3ccccc3)CS[C@H]12)c1csc(N)n1)C(=O)O [Cefazidime]
minimum inhibitory concentration (MIC), antibiotic Alone [3]: 32
minimum inhibitory concentration (MIC), With F19 (10 μg/mL) [3]: <0.1

CCCCCCc1cc(C(=O)COc2ccc(F)cc2F)c(O)cc1O [4f-12]
improvement of wound healing compared to untreated control [4]: 79.4%
bacterial burden of the wound vs untreated control [4]: no significant difference in the bacterial burden
survival of larvae in the absence of bacteria [5]: 80%
inhibition of formation of the AgrA-promoter P3 complex (EMSA) [6]: inhibit binding of AgrA to its cognate DNA
inhibition of formation of the AgrA-promoter P3 complex (EMSA) ([6]; listed as F12): inhibit the formation of the AgrA-promoter P3 complex

Penicillin
minimum inhibitory concentration (MIC), antibiotic Alone ([1]; MRSA USA300): 135 µg/mL
minimum inhibitory concentration (MIC), With F19 (1 μg/mL) ([1]; MRSA USA300, with F19 1 μg/mL): 18 µg/mL
minimum inhibitory concentration (MIC), antibiotic Alone [7]: 174
minimum inhibitory concentration (MIC), With F19 (1 μg/mL) [7]: 34

CN[C@H](CC(C)C)C(=O)N[C@H]1C(=O)N[C@@H](CC(N)=O)C(=O)N[C@H]2C(=O)N[C@H]3C(=O)N[C@H](C(=O)N[C@H](C(=O)O)c4cc(O)cc(O)c4-c4cc3ccc4O)[C@H](O)c3ccc(c(Cl)c3)Oc3cc2cc(c3O[C@@H]2O[C@H](CO)[C@@H](O)[C@H](O)[C@H]2O[C@H]2C[C@](C)(N)[C@H](O)[C@H](C)O2)Oc2ccc(cc2Cl)[C@H]1O [Vancomycin, vancomycin]
tissue burden of the wound, average log CFUs ± standard deviation [4]: 6.96±0.3 log CFU
bacterial load in blood compared to the F19-cephalothin treatment ([8]; 30 mg/kg IP twice daily): almost two orders of magnitude lower
surviving mice (of ten per group) ([8]; 30 mg/kg IP twice daily for 7 days, lethal dose 1.6×10^10 CFUs): all survived
mean bacterial load in blood compared to vehicle-treated animals ([8]; 30 mg/kg IP twice daily, day 6): four orders of magnitude lower

CCCCCCc1cc(C(=O)COc2cccc(F)c2)c(O)cc1O [4f-1]
improvement of wound healing compared to untreated control [4]: 46.6%
bacterial burden of the wound vs untreated control [4]: no significant difference in the bacterial burden
inhibition of formation of the AgrA-promoter P3 complex (EMSA) ([6]; listed as F1): inhibit the formation of the AgrA-promoter P3 complex

CC(=O)OCC1=C(C(=O)O)N2C(=O)[C@@H](NC(=O)Cc3cccs3)[C@H]2SC1 [Cephalothin, cephalothin]
tissue burden of the wound, average log CFUs ± standard deviation [4]: 7.54±0.4 log CFU
minimum inhibitory concentration (MIC), antibiotic Alone ([1]; MRSA USA300): 58 µg/mL (≈ 146 µM)
MIC [1]: 2 µg/mL (≈ 5.04 µM)
minimum inhibitory concentration (MIC), antibiotic Alone [7]: 64
minimum inhibitory concentration (MIC), With F19 (1 μg/mL) [7]: 3
bacterial burden in blood compared to F19-treated animals ([8]; 30 mg/kg IP twice daily): approximately the same bacterial burden levels

C[C@H]1[C@H](NC(=O)/C(=N\OC(C)(C)C(=O)O)c2csc(N)n2)C(=O)N1S(=O)(=O)O [Aztreonam]
minimum inhibitory concentration (MIC), antibiotic Alone [3]: 256
minimum inhibitory concentration (MIC), With F19 (10 μg/mL) [3]: <0.1
